This passage reports IC50 and inhibition results from patent publication US20220213070A1, “COMPOUNDS INHIBITING TDG ACTIVITY” (EPITAS BIOSCIENCES (SHANGHAI) CO., LTD., priority 2019, published 2022).

One may read the IC50 as the point on the concentration scale where inhibition reaches its midpoint. As a reminder, the inhibition is the change of the read-out against control, counted positive when it falls.

In assay [1] the target is T1, TDG (Homo sapiens, UniProt Q13569). Nature of the assay: Inhibition of TDG mismatch repair activity (fluorescent G·U double-stranded DNA probe T1-T2). Format: biochemical. The following applies: TDG 100 nM/L, preincubated with compound 37° C. 30 minutes; probe 30 nM; read-out: Inhibitory activity on TDG mismatch repair IC50. The source says: 14.1 Experimental Determination of Compound's Inhibitory Rate on TDG Mismatch Repair Activity
(1) A double-stranded DNA probe T1-T2 containing uracil bases was synthesized. The nucleotide sequence of the T1 chain was: 5′-FAM-TAAUGTGAATGGAGCTGAAAT-biotin-3′; The nucleotide sequence of the T2 chain was 5′-ATTTCAGCTCCATTCACGTTA-3′. Using PCR annealing program, the T1 strand and T2 strand were complementary to form a double-stranded DNA probe T1-T2.
(2) The reaction system and steps for each well of a 96-well plate were as follows: a. TDG (100 nM/L) was mixed with different concentrations of compounds, and the mixture was incubated at 37° C. for 30 minutes. The composition of the reaction buffer was: 20 mM HEPES pH7.5, 100 mM NaCl, 0.2 mM EDTA, 2.5 mM MgCl2; b. The double-stranded DNA probe T1-T2 was added to the mixture to obtain a final volume of 100 μL, with a concentration of 30 nM, and the mixture was incubated at 25° C. for 30 min; c. 1 μL of streptavidin magnetic beads were added to the reaction solution and fully bound the biotin-labeled DNA for 1 hour; d. NaOH was added to the reaction solution to a final concentration of 200 mM, and the mixture was incubated at room temperature for 30 minutes; e. Under the action of a magnetic stand the streptavidin magnetic beads were adsorbed to the tube wall, the supernatant was transferred to a new 96-well plate, and placed in a Tecan microplate reader for fluorescence measurement. The parameter settings were: excitation wavelength 485 nm; emission wavelength 520 nm. A linear curve between fluorescence intensity and TDG concentration was constructed, R^2=0.9968, and the linear range was 0-50 nM/L;
According to the biological method described in this example, the selected compounds of the present invention were analyzed, and the results are shown in Table 1. Among them, “++” in Table 1 refers to the inhibitory activity for TDG mismatch repair with IC50≤5 μM; “+” refers to the inhibitory activity for TDG mismatch repair with IC50>5 μM.

Assay [2] has as its system Lung cancer cell line Calu-1. The assay can be described thus: Inhibition of the growth of Calu-1 cells (CellTiter-Glo, 72 hours). Format: cell-based. The following applies: Homo sapiens, 72 hours of culturing, read-out: Inhibitory activity on alu-1 cell growth IC50. On the procedure: 14.2 Experimental Determination of Compound's Inhibitory Rate on the Growth of Calu-1 Cells
Lung cancer cell line Calu-1 was cultured in 90% McCoy's 5A medium (BI, 01-075-1ACS)+10% fetal bovine serum (Gibco, 10270106), placed in a CO2 incubator (37° C., 5% CO2, 95% air) for culturing. Calu-1 cells were digested with trypsin (Gibco, 12604-021) and seeded in a 384-well plate at a density of 500 cells per well. The medium was 50 μL and it was cultured overnight at 37° C. in an incubator. On the next day, different concentrations of test compounds were added, and the final concentration of DMSO was 0.1%. After 72 hours of culturing, the cells were taken out for test. The cell culture medium from the 384-well plate to be tested was removed, and fresh culture medium premixed with CTG was immediately added: the ratio of the culture medium to CellTiter-Glo® 2.0 reagent (Promega, G9243) was 2:1, 30 ul was added to each well. The plate was shaken at room temperature for 20 minutes, and then a multi-function plate reader (TECAN, Infinite 200 Pro) was used according to the reagent instructions to determine the cell survival.
According to the biological method described in this example, the selected compounds of the present invention were analyzed, and the results are shown in Table 1. Among them, “++” in Table 1 refers to the inhibitory activity on the growth of calu-1 cells with IC50≤5 μM; “+” refers to the inhibitory activity on the growth of calu-1 cells with IC50>5 μM.
For orientation: In ATP-based viability assays light output follows the ATP content of the culture.

Assay [3] deals with T1, TDG. The assay can be described thus: TDG inhibitory activity of compounds in cells (caC-cmv-firefly luciferase reporter, HEK 293T TDG KO cells transfected with pCDNA4-TDG). Format: cell-based. The note with it: read-out: Inhibition rate on TDG activity. The protocol:
Experimental Determination of TDG Inhibitory Activity of Compounds in Cells
The operation steps of this example are as follows:
(1) Preparation of Methylation Reporter Plasmid:
(a) SAM with a stock solution concentration of 32 mM was diluted with ultrapure water to 1600 μM;
(b) The reaction system was prepared according to the following ratio: 30 μl ultrapure water, 5 μl 10×NEBuffer 2, 5 μl diluted SAM, 1 μg pCpGL-CMV-firefly plasmid, 1 μl SssI methylase (4 U/μl); 50 μl in total, the reaction was carried out at 37° C. for 2 hours;
(c) The mixture was heated at 65° C. for 20 minutes. Then 0.2% SDS was added, the reaction was carried out at 80° C. for 10 min; and then 1 μl Proteinase K was added, the reaction was carried out at 50° C. for 1 h;
(d) The methylated plasmid was recovered with Dr. GenTLE® sedimentation aid (TAKARA).
(2) Preparation of 5fC/5caC pCpGL-CMV-Firefly Reporter Plasmid
(a) The following 10× reaction system was prepared:
(b) The reaction system was prepared according to the following ratio:
(c) The reaction was carried out at 37° C. for one hour;
(d) 24 μg Tet1 protein was added for the second time and the reaction was continued for one hour;
(e) SDS was added to a final concentration of 0.5%, 80° C., 10 minutes, then 1 μl Proteinase K was added, 55° C. overnight.
(f) The treated caC-cmv-firefly plasmid was recovered with Dr. GenTLE® sedimentation aid (TAKARA) and was quantified.
(3) Using the Luciferase Activity Assay Method to Detect the Inhibitory Rate of Small Molecule Compounds on Intracellular TDG Enzyme Activity
In a 96-well plate, the reaction system and operation flow of each well were as follows:
(a) 1 ng caC-cmv-firefly, Ing pCpGL-CMV-Relina and 150 ng pCDNA4-TDG or 150 ng pCDNA4-myc plasmid, were diluted to 75 ul Opti-MEM, mixed well and allowed to stand still for 5 minutes;
(b) 2 ul transfection reagent (Hieff Trans™ Liposomal transfection Reagent (0.5 ul/well, YEAEEN, Cat #40802)) was diluted in 100 ul Opti-MEM, mixed well and allowed to stand still for 5 minutes;
(c) 75 ul of (a) and (b) were mixed respectively, and allowed to stand still at room temperature for 20 minutes;
(d) HEK 293T TDG KO cells were digested with trypsin, the cells were collected and counted, and the suspension cell concentration was adjusted to 4×10^5/ml;
(e) 50 ul of the mixture (c) was added to each well, and at the same time 100 ul of the diluted cell suspension was added to the same well, and they were mixed well.
(f) After the cells adhering to the wall, different concentrations of small molecule compounds to be tested were added to each well.
(g) Incubation was performed in a 37° C. CO2 incubator for 72 hours. The supernatant was removed and the cells were quickly freezed at −80° C.
(h) Before detecting the luciferase activity, the cells to be tested were removed from −80° C. and allowed to stand still at room temperature for 30 minutes. Following the instructions of Dual-Glo® Luciferase Reagent (PROMEGA), the firefly fluorescence value and Renilla fluorescence value of each well were detected.
(i) The firefly fluorescence value was divided with the Renilla fluorescence value of each well; 96-well plate Z′ and experimental window was calculated by the ratio of transfected caC-cmv-firefly, pCpGL-CMV-Relina, pCDNA4-TDG plasmid mixture plus DMSO experimental group to transfected caC-cmv-firefly, pCpGL-CMV-Relina, pCDNA4-myc plasmid mixture plus DMSO experimental group, and the relative enzyme activity inhibition rate of each compound was calculated.
According to the biological method described in this example, the selected compounds of the present invention were analyzed, and the results are shown in Table 2. Among them, “+” in Table 2 refers to the compound's TDG inhibitory activity at a concentration of 10 μM≤25%; “++” refers to the compound's TDG inhibitory activity at a concentration of 10 μM>25%.
On the technique in general: A reporter such as luciferase makes a cellular process visible.

T1 sequence (Q13569 whole entry): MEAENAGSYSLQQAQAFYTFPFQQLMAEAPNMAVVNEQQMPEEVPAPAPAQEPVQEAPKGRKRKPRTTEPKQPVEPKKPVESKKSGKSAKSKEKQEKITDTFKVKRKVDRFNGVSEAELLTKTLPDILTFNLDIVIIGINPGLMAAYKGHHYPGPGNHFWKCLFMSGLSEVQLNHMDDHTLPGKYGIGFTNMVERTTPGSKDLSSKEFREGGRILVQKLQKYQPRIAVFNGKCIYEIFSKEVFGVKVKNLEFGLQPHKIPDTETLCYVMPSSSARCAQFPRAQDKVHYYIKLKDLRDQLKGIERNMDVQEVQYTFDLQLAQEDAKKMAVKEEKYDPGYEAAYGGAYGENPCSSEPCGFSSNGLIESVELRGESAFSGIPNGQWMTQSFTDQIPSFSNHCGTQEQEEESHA

In the case of `O=C(CCN1Cc2ccccc2C1)c1ccc2c(c1)CCCN2` [Compound 30, 3-(isoindolin-2-yl)-1-(1,2,3,4-tetrahydroquinolin-6-yl)propan-1-one], the IC50 (at TDG [1]; in assay [2]) was over 5 µM each time. In addition, the inhibition at 10 µM on TDG [3] is under 25%.

Consider `O=C(CCCN1Cc2ccccc2C1)c1ccc2c(c1)OCCO2` [Compound 31, 1-(2,3-dihydrobenzo[b][1,4]dioxin-6-yl)-4-(isoindolin-2-yl)butan-1-one], for which the IC50 (on TDG [1]; in assay [2]) was over 5 µM throughout. Moreover, the inhibition at 10 µM on TDG [3] was under 25%.

As to `O=C(CN1Cc2ccccc2C1)c1ccc2c(c1)OCCO2` [Compound 32, 1-(2,3-dihydrobenzo[b][1,4]dioxin-6-yl)-2-(isoindolin-2-yl)ethan-1-one], the half-maximal inhibitory concentration (IC50) (on TDG [1]; in assay [2]) was over 5 µM each time. Besides, at TDG [3], the inhibition at 10 µM was under 25%.

For `O=C(c1ccc2c(c1)OCCO2)N1Cc2ccccc2C1` [Compound 33, (2,3-dihydrobenzo[b][1,4]dioxin-6-yl)(isoindolin-2-yl)methanone], the 50% inhibitory concentration (IC50) (on TDG [1]; in assay [2]) was over 5 µM each time. Moreover, the inhibition at 10 µM at TDG [3] was under 25%.

On to `O=C(CCN1Cc2ccccc2C1)c1ccc2c(c1)CCO2` [Compound 34, 1-(2,3-dihydrobenzofuran-5-yl)-3-(isoindolin-2-yl)propan-1-one], for which the half-maximal inhibitory concentration (IC50) (at TDG [1]; in assay [2]) was over 5 µM in each case. Further, on TDG [3], the inhibition at 10 µM is under 25%.

Turning to `O=C(CCN1Cc2ccccc2C1)c1ccc2c(c1)OCO2` [Compound 35, 1-(benzo[d][1,3]dioxo1-5-yl)-3-(isoindolin-2-yl)propan-1-one], the concentration for half-maximal inhibition (IC50) (at TDG [1]; in assay [2]) was at most 5 µM throughout. Besides, on TDG [3], the inhibition at 10 µM was under 25%.

As to `O=C(CCN1Cc2ccccc2C1)c1ccc2c(c1)C(=O)CCO2` [Compound 36, 6-(3-(isoindolin-2-yl)propionyl)chroman-4-one], the IC50 (at TDG [1]; in assay [2]) was at most 5 µM in each case. Besides, the inhibition at 10 µM at TDG [3] was under 25%.

For `O=C(CCN1Cc2ccccc2C1)c1ccc2c(c1)SCCO2` [Compound 37, 1-(2,3-dihydrobenzo[b][1,4]oxathion-6-yl)-3-(isoindolin-2-yl)propan-1-one], the half-inhibitory concentration (IC50) (on TDG [1]; in assay [2]) was over 5 µM each time. Also, the inhibition at 10 µM on TDG [3] is under 25%.

`COc1ccc(C(=O)CCN2Cc3ccccc3C2)cc1OC` [Compound 38, 1-(3,4-dimethoxyphenyl)-3-(isoindolin-2-yl)propan-1-one]: the IC50 (on TDG [1]; in assay [2]) was over 5 µM throughout. Also, the inhibition at 10 µM on TDG [3] is over 25%.

Take `O=C(CCN1Cc2ccccc2C1)c1ccc(O)c(O)c1` [Compound 39, 1-(3,4-dihydroxyphenyl)-3-(isoindolin-2-yl)propan-1-one]: the IC50 (at TDG [1]; in assay [2]) was over 5 µM in each case. Also, the inhibition at 10 µM on TDG [3] is under 25%.

For `O=C(CCN1Cc2ccc(-c3ccc(F)cc3)cc2C1)c1ccc2c(c1)OCCO2` [Compound 40, 1-(2,3-dihydrobenzo[b][1,4]dioxin-6-yl)-3-(5-(4-fluorophenyl)isoindolin-2-yl)propan-1-one], the concentration for half-maximal inhibition (IC50) (at TDG [1]; in assay [2]) was over 5 µM in each case. Also, the inhibition at 10 µM on TDG [3] is under 25%.

`O=C(CCN1CC2C=CC(c3ccncc3)=CC2C1)c1ccc2c(c1)OCCO2` (stereo not drawn) [Compound 41, 1-(2,3-dihydrobenzo[b][1,4]dioxin-6-yl)-3-(5-(pyridin-4-yl)-1,3,3a,7αtetrahydro-2H-isoindolepyridin-2-yl)propan-1-one]: the IC50 (on TDG [1]; in assay [2]) was over 5 µM in each case. On TDG [3], the inhibition at 10 µM was under 25%.

Regarding `C=CC(=O)c1ccc2c(c1)OCCO2` [Compound 42, 1-(2,3-dihydrobenzo[b][1,4]dioxin-6-yl)prop-2-en-1-one], the IC50 (at TDG [1]; in assay [2]) was at most 5 µM throughout. Besides, the inhibition at 10 µM at TDG [3] is under 25%.

As to `O=C(CCN1CCC(O)(c2ccc(F)cc2)C1)c1ccc2c(c1)OCCO2` (stereo not drawn) [Compound 43, 1-(2,3-dihydrobenzo[b][1,4]dioxin-6-yl)-3-(3-(4-fluorophenyl)-3-hydroxypyrrolidine-1-yl)propan-1-one], the half-maximal inhibitory concentration (IC50) (on TDG [1]; in assay [2]) was at most 5 µM each time. The inhibition at 10 µM on TDG [3] is under 25%.

On to `O=C(CCN1CCC(O)(c2ccccc2)C1)c1ccc2c(c1)OCCO2` (stereo not drawn) [Compound 44, 1-(2,3-dihydrobenzo[b][1,4]dioxin-6-yl)-3-(3-hydroxy-3-phenylpyrrolidin-1-yl)propan-1-one], for which the concentration for half-maximal inhibition (IC50) was over 5 µM at TDG [1] and at most 5 µM in assay [2]. The inhibition at 10 µM at TDG [3] is under 25%.
